Experimental data published in US8048825B2, “Haloalkylsulfonanilide derivatives or salt thereof, herbicide comprising the derivatives as active ingredient, and use of the herbicide” (Nihon Nohyaku Co., Ltd., priority 2006, dated 2011).

What was measured:
Type in all cases: in vivo
Lindernia procumbens [1] = test: Herbicidal effect on paddy field weeds of post-emergence stage (Post), Test Example 2; details: one-leaf stage, 1000 g/ha as active ingredient, examined after 21 days
Text: (§1) Criteria for herbicidal efficacy (growth inhibiting degree) and phytotoxicity. • 5 . . . 100% herbicidal effect, phytotoxicity. • 4 . . . 90%-99% herbicidal effect, phytotoxicity. • 3 . . . 70%-89% herbicidal effect, phytotoxicity. • 2 . . . 40%-69% herbicidal effect, phytotoxicity. • 1 . . . 1%-39% herbicidal effect, phytotoxicity. • 0 . . . 0% herbicidal effect, phytotoxicity.
(§2) 75 cm^2 plastic pots were filled with the soil (clay loam). Seeds of Scirpus juncoides and Echinochloa crus-galli, paddy weeds, were planted, and they were covered with 75 cm^3 of soil mixed with seeds of Lindernia procumbens and then filled with water depth of 5 cm and they were brought up in a greenhouse. When the test plants were at one-leaf stage, predetermined effective dosage (1000 g/ha as an active ingredient) of formulations comprising a compound of the present invention as an active ingredient was applied to the pot water. Then, they were brought up in a greenhouse and the herbicidal efficacy was examined after 21 days from the treatment by comparing with the result of an untreated group according to the criteria of Test Example 1. In the table, “-” means that the test was not performed.

Scirpus juncoides [2] = test: as above; details: one-leaf stage, 1000 g/ha as active ingredient, examined after 21 days
Text: as §1, §2

Lindernia procumbens [3] = test: Herbicidal efficacy on paddy field weeds of pre-emergence stage (Pre), Test Example 1; details: 1000 g/ha as active ingredient, examined after 21 days
Method: (§3) 75 cm^2 plastic pots were filled with the soil (clay loam). Seeds of Scirpus juncoides, a paddy weed, were planted, and they were covered with 75 cm^3 of soil mixed with seeds of Lindernia procumbens and then filled with water depth of 5 cm. Next day, predetermined effective dosage (1000 g/ha as an active ingredient) of formulations comprising a compound of the present invention as an active ingredient which were prepared following Formulation Examples 1 to 4 was diluted with water and applied dropwise to the surface of the water. Then, they were brought up in a greenhouse and the herbicidal effect was examined after 21 days from the treatment by comparing with the result of an untreated group according to the following criteria. In the table, “-” means that the test was not performed.
as §1

Scirpus juncoides [4] = test: as above; details: 1000 g/ha as active ingredient, examined after 21 days
Method: as §3, §1

| Structure (SMILES) | Lindernia procumbens post (herbicidal effect) (Lindernia procumbens [1]) | Scirpus juncoides post (herbicidal effect) (Scirpus juncoides [2]) | Lindernia procumbens pre (herbicidal effect) (Lindernia procumbens [3]) | Scirpus juncoides pre (herbicidal effect) (Scirpus juncoides [4]) |
| --- | --- | --- | --- | --- |
| CCOC(=O)N(c1ccccc1CN1CCC(c2ccccc2F)OC1=O)S(=O)(=O)C(F)(F)F (stereo not drawn) [Compound 1-252] | 5 (100% herbicidal effect, phytotoxicity) | 4 (90%-99% herbicidal effect, phytotoxicity) | 5 (100% herbicidal effect, phytotoxicity) | 4 (90%-99% herbicidal effect, phytotoxicity) |
| COC(=O)N(c1ccccc1CN1CCC(c2c(F)cccc2F)OC1=O)S(=O)(=O)C(F)(F)F (stereo not drawn) [Compound 1-350] | 5 (100% herbicidal effect, phytotoxicity) | 4 (90%-99% herbicidal effect, phytotoxicity) | 5 (100% herbicidal effect, phytotoxicity) | 5 (100% herbicidal effect, phytotoxicity) |
| O=C1OC(c2ccccc2C(F)(F)F)CCN1Cc1ccccc1NS(=O)(=O)C(F)(F)F (stereo not drawn) [Compound 1-294] | 5 (100% herbicidal effect, phytotoxicity) | 4 (90%-99% herbicidal effect, phytotoxicity) | 5 (100% herbicidal effect, phytotoxicity) | 4 (90%-99% herbicidal effect, phytotoxicity) |
| COC(=O)N(c1ccccc1CN1CCC(C)(c2ccccc2F)OC1=O)S(=O)(=O)C(F)(F)F (racemic) [Compound 1-429] | 5 (100% herbicidal effect, phytotoxicity) | 4 (90%-99% herbicidal effect, phytotoxicity) | 5 (100% herbicidal effect, phytotoxicity) | 4 (90%-99% herbicidal effect, phytotoxicity) |
| O=C1OC(c2ccccc2)(C2CCC2)CCN1Cc1ccccc1NS(=O)(=O)C(F)(F)F (stereo not drawn) [Compound 1-206] | 4 (90%-99% herbicidal effect, phytotoxicity) | 4 (90%-99% herbicidal effect, phytotoxicity) | 4 (90%-99% herbicidal effect, phytotoxicity) | 4 (90%-99% herbicidal effect, phytotoxicity) |
| CC1(c2ccccc2Cl)CCN(Cc2ccccc2NS(=O)(=O)C(F)(F)F)C(=O)O1 (stereo not drawn) [Compound 1-172] | 4 (90%-99% herbicidal effect, phytotoxicity) | 4 (90%-99% herbicidal effect, phytotoxicity) | 4 (90%-99% herbicidal effect, phytotoxicity) | 4 (90%-99% herbicidal effect, phytotoxicity) |
| CC(C)COC(=O)N(c1ccccc1CN1CCC(C)(c2ccccc2Cl)OC1=O)S(=O)(=O)C(F)(F)F (stereo not drawn) [Compound 1-177] | 4 (90%-99% herbicidal effect, phytotoxicity) | 4 (90%-99% herbicidal effect, phytotoxicity) | 4 (90%-99% herbicidal effect, phytotoxicity) | 4 (90%-99% herbicidal effect, phytotoxicity) |
| O=C1OC(c2ccccc2F)CCN1Cc1ccccc1NS(=O)(=O)C(F)(F)F (stereo not drawn) [Compound 1-250] | 5 (100% herbicidal effect, phytotoxicity) | 5 (100% herbicidal effect, phytotoxicity) | 5 (100% herbicidal effect, phytotoxicity) | 5 (100% herbicidal effect, phytotoxicity) |
| CC1(c2ccccc2F)CCN(Cc2ccccc2NS(=O)(=O)C(F)(F)F)C(=O)O1 (racemic) [Compound 1-428] | 5 (100% herbicidal effect, phytotoxicity) | 4 (90%-99% herbicidal effect, phytotoxicity) | 5 (100% herbicidal effect, phytotoxicity) | 5 (100% herbicidal effect, phytotoxicity) |
| CCCCC(CC)COC(=O)N(c1ccccc1CN1CCC2(CCCC2)OC1=O)S(=O)(=O)C(F)(F)F (stereo not drawn) [Compound 1-144] | 4 (90%-99% herbicidal effect, phytotoxicity) | 4 (90%-99% herbicidal effect, phytotoxicity) | 4 (90%-99% herbicidal effect, phytotoxicity) | 4 (90%-99% herbicidal effect, phytotoxicity) |
| CCOC(=O)N(c1ccccc1CN1CCC(C)(c2ccccc2)OC1=O)S(=O)(=O)C(F)(F)F (stereo not drawn) [Compound 1-162] | 4 (90%-99% herbicidal effect, phytotoxicity) | 4 (90%-99% herbicidal effect, phytotoxicity) | 4 (90%-99% herbicidal effect, phytotoxicity) | 4 (90%-99% herbicidal effect, phytotoxicity) |
| CCOC(=O)N(c1ccccc1CN1CCC(c2ccccc2)(c2ccccc2)OC1=O)S(=O)(=O)C(F)(F)F [Compound 1-219] | 4 (90%-99% herbicidal effect, phytotoxicity) | 4 (90%-99% herbicidal effect, phytotoxicity) | 4 (90%-99% herbicidal effect, phytotoxicity) | 4 (90%-99% herbicidal effect, phytotoxicity) |
| CCCOC(=O)N(c1ccccc1CN1CCC(CC)(C(F)(F)F)OC1=O)S(=O)(=O)C(F)(F)F (stereo not drawn) [Compound 1-94] | 5 (100% herbicidal effect, phytotoxicity) | 4 (90%-99% herbicidal effect, phytotoxicity) | 5 (100% herbicidal effect, phytotoxicity) | 5 (100% herbicidal effect, phytotoxicity) |
| CCC1(CC)CCN(Cc2ccccc2N(C(=O)OCC(C)C)S(=O)(=O)C(F)(F)F)C(=S)O1 [Compound 1-119] | 4 (90%-99% herbicidal effect, phytotoxicity) | 4 (90%-99% herbicidal effect, phytotoxicity) | 4 (90%-99% herbicidal effect, phytotoxicity) | 4 (90%-99% herbicidal effect, phytotoxicity) |
| CC1(c2ccccc2C(F)(F)F)CCN(Cc2ccccc2NS(=O)(=O)C(F)(F)F)C(=O)O1 (stereo not drawn) [Compound 1-393] | 5 (100% herbicidal effect, phytotoxicity) | 4 (90%-99% herbicidal effect, phytotoxicity) | 5 (100% herbicidal effect, phytotoxicity) | 5 (100% herbicidal effect, phytotoxicity) |
| CCC1(C(C)C)CCN(Cc2ccccc2N(C(=O)OCC(C)(C)C)S(=O)(=O)C(F)(F)F)C(=O)O1 (racemic) [Compound 1-456] | 5 (100% herbicidal effect, phytotoxicity) | 4 (90%-99% herbicidal effect, phytotoxicity) | 5 (100% herbicidal effect, phytotoxicity) | 5 (100% herbicidal effect, phytotoxicity) |
| CC1(Cc2ccccc2F)CCN(Cc2ccccc2NS(=O)(=O)C(F)(F)F)C(=O)O1 (racemic) [Compound 1-461] | 5 (100% herbicidal effect, phytotoxicity) | 4 (90%-99% herbicidal effect, phytotoxicity) | 5 (100% herbicidal effect, phytotoxicity) | 5 (100% herbicidal effect, phytotoxicity) |
| O=C1OC(c2ccccc2Cl)CCN1Cc1ccccc1NS(=O)(=O)C(F)(F)F (stereo not drawn) [Compound 1-305] | 5 (100% herbicidal effect, phytotoxicity) | 4 (90%-99% herbicidal effect, phytotoxicity) | 5 (100% herbicidal effect, phytotoxicity) | 4 (90%-99% herbicidal effect, phytotoxicity) |
| CN(c1ccccc1CN1CC(C)(C)C(c2ccccc2)OC1=O)S(=O)(=O)C(F)(F)F (stereo not drawn) [Compound 1-268] | 5 (100% herbicidal effect, phytotoxicity) | 4 (90%-99% herbicidal effect, phytotoxicity) | 5 (100% herbicidal effect, phytotoxicity) | 4 (90%-99% herbicidal effect, phytotoxicity) |
| CCOC(=O)N(c1ccccc1CN1CCC(C)(c2ccccc2Cl)OC1=O)S(=O)(=O)C(F)(F)F (stereo not drawn) [Compound 1-174] | 4 (90%-99% herbicidal effect, phytotoxicity) | 4 (90%-99% herbicidal effect, phytotoxicity) | 4 (90%-99% herbicidal effect, phytotoxicity) | 4 (90%-99% herbicidal effect, phytotoxicity) |
| CCC1(CC)CCN(Cc2ccccc2N(C(=O)OCC(C)(C)C)S(=O)(=O)C(F)(F)F)C(=O)O1 [Compound 1-108] | 4 (90%-99% herbicidal effect, phytotoxicity) | 4 (90%-99% herbicidal effect, phytotoxicity) | 4 (90%-99% herbicidal effect, phytotoxicity) | 4 (90%-99% herbicidal effect, phytotoxicity) |
